From US20220226470A1, “ANTIBODIES AND METHODS FOR TREATMENT OF INFLUENZA A INFECTION” (HUMABS BIOMED SA, priority 2019, published 2022)
pIC50: −log10 of the molar value.

What was measured:
Test in all cases: microbe, parasite or virus in culture
Format in all cases: cell-based
H1N1 virus = details: Influenza A virus, H1N1, MDCK
H3N2 virus = details: Influenza A virus, H3N2, MDCK
H3N2 and H1N1 strains = details: Influenza A virus, MDCK, read-out: relative calculated IC50

SMILES: CCOC(=O)C1=C[C@@H](OC(CC)CC)[C@H](NC(C)=O)[C@@H](N)C1 [oseltamivir, reference compound]
- pIC50 (H1N1 virus): 8.04
- pIC50 (H3N2 virus): 8.15

SMILES: CC(=O)N[C@H]1[C@H]([C@H](O)[C@H](O)CO)OC(C(=O)O)=C[C@@H]1N=C(N)N [zanamivir, reference compound]
- pIC50 (H3N2 and H1N1 strains): 7.86 to 7.97
